Tests used:
Assay type in all cases: cell-based
Erk1/2 = experiment: Phosphorylation analysis by western blotting, phospho-Erk after anisomycin stimulation; settings: following stimulation with anisomycin; western blot, phospho-Erk (Thr202/Tyr204)
Procedure: (§1) The phosphorylation levels of Erk, JNK, and p38 were assessed by western blotting using phospho-specific antibodies (results not shown). In brief, cells were treated for 15 min with/without 2 uM anicomycin to stimulate the MAPK-signaling pathways. Next various concentrations of the test compound were added to treat cells for 90 minutes. Cells lysed in lysis buffer (50 mM Tris-HCl pH 7.4, 150 mM NaCl, 5 mM EDTA, 1 mM EGTA, 1% Nonidet P-40, 2 mM Na3VO4 and protease inhibitor cocktail (Roche)). Equal amounts of lysate ([…]) were subjected to SDS-PAGE followed by immunoblotting with phospho-specific antibodies—anti-phospho-Erk (Thr202/Tyr204), anti-phospho-JNK (Thr183/Tyr185) and anti-phospho-p38 (Thr180/Tyr182) antibodies—or antibodies recognizing Erk (Cell signaling). Proteins were detected by enhanced chemioluminescence (ECL-plus; Amersham), following the manufacturer's guidelines.

[1] = target: T1, B-RAF 'gatekeeper mutation' T529I (Homo sapiens, UniProt P15056, T529I); experiment: Suppression of B-RAF gatekeeper mutation T529I (FIGS. 18A to 18B); settings: T529I confers resistance in other B-RAF inhibitors
T1 construct: expressed in transfected cells; host or cells: Ba/F3 (murine pro-B) cells transformed with B-RAF
Procedure: Ba/F3 cells and B-RAF transformed Ba/F3 cells were maintained in RPMI 1640 medium supplemented with 10% fetal bovine serum (FBS) in a 5% CO2 incubator at 37° C. The untransformed Ba/F3 cells are supplemented with 1.0 ng/ml of recombinant IL3. 4000 Ba/F3 cells per well were plated in quadruplicate in 384-well plates, in RPMI 1640 media supplemented with 10% FBS and various concentrations of IL3. After 48 h of growth, Brightglo reagent (Promega, WI) was added to each well. Luminescent was read as counts/sec. XL-fit was used for IC50 analysis.

JNK = experiment: Phosphorylation analysis by western blotting, phospho-JNK after anisomycin stimulation; settings: following stimulation with anisomycin; western blot, phospho-JNK (Thr183/Tyr185)
Procedure: as §1

p38 = experiment: Phosphorylation analysis by western blotting, phospho-p38 after anisomycin stimulation; settings: following stimulation with anisomycin; western blot, phospho-p38 (Thr180/Tyr182)
Procedure: as §1

T1 sequence (P15056 whole entry T529I): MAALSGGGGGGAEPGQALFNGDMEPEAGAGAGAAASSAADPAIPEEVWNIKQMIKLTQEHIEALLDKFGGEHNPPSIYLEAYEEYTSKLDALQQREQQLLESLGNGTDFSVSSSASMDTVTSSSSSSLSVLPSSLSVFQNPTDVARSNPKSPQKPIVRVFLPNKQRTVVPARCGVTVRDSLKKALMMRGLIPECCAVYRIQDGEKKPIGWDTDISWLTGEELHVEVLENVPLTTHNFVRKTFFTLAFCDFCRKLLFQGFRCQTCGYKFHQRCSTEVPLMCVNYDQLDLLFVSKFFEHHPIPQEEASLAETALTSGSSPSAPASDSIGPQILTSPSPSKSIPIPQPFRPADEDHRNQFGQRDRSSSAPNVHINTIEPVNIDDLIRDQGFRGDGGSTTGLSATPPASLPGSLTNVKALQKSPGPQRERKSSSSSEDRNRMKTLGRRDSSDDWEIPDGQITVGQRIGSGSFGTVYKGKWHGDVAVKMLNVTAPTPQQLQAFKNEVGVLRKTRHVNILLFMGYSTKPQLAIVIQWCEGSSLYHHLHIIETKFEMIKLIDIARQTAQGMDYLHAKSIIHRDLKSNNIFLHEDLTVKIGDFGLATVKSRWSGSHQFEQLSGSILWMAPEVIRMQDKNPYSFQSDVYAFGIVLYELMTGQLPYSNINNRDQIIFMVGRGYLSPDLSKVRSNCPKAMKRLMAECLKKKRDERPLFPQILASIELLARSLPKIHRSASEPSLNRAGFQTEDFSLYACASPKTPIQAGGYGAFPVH

suppression of B-RAF gatekeeper mutation T529I [1]: can suppress
Structure (SMILES): CCN1CCN(Cc2ccc(NC(=O)c3ccc(C)c(/C=C/c4cnc5[nH]ccc5c4OC)c3)cc2C(F)(F)F)CC1 [XI-1, (E)-N-(4-((4-ethylpiperazin-1-yl)methyl)-3-(trifluoromethyl)phenyl)-3-(2-(4-methoxy-1H-pyrrolo[2,3-b]pyridin-5-yl)vinyl)-4-methylbenzamide]
inhibition of phosphorylation of Erk1/2 (Erk1/2): not | inhibition of phosphorylation of JNK (JNK): inhibits | inhibition of phosphorylation of p38 (p38): inhibits
